Measured values: patent publication US20240158339A1, “TYRAMINE CONTAINING HYDROXYCINNAMIC ACID AMIDE DERIVATIVES AND METHODS OF USE THEREOF” (Brightseed, Inc., priority 2018, published 2024)
Entries after “also recorded” stand apart in the source; their conditions may differ.

Columns and labels:
[1] = test system: T6PNE cells; assay: Lipid clearance (steatosis assay) in T6PNE cells; format: cell-based
Method: T6PNE cells were pretreated for 1 day with 0.06 mM, 0.12 mM or 0.25 mM palmitate at which time 15 μM N-trans-caffeoyltyramine or control (DMSO) was added. Cells were harvested on day 3, 6 and 8 and subjected to staining with Nile Red and […]. Results are expressed as fold change in Nile Red staining: +palmitate/10% FBS medium (no palmitate).
Lipid Clearance in HepG2 and T6PNE Cells (Steatosis Assay). The steatosis assay was carried out as described (Kiselyuk, et al. (2012) Chem. Biol. 19(7):806-818) with the exception of the drug concentration, which was 20 μM for N-trans-caffeoyltyramine with 0.25 mM palmitate in HepG2 cell lines, and 10 μM of either N-trans-caffeoyltyramine, N-trans-caffeoyltyramine, or p-coumaroyltyramine, with 0.25 mM palmitate in T6PNE cell lines. Steatosis was assessed using the Oil Red O Method for Fats kits (Poly Scientific; Warrington, PA), per manufacturer's guidelines. Briefly, frozen tissue slides or fixed cells were incubated in neat propylene glycol for 2 minutes and Oil Red O solution for […] for slides or 1 hour for fixed cells, differentiated in 85% propylene glycol solution for 1 minute, washed twice with distilled water and stained in Hematoxylin of 10 seconds. Slides were mounted with glycerin jelly mounting medium.

[2] = test system: E47MER; assay: Counter-screen for estrogenic activity (E47MER luciferase reporter in HeLa cells); format: cell-based, human; settings: with 1 μM or without tamoxifen, FIG. 5
Method: Counter-Screen for Estrogenic Activity. Estrogenic activity was monitored by co-transfection of a reporter plasmid containing a multimerized E-box 5′ of a minimal promoter fused to the Firefly luciferase gene with wild-type E47 or E47MER (Kiselyuk, et al. (2010) J. Biomol. Screen 15(6):663-70). HeLa cells were transfected using polyethylenimine, 0.2 μg 4RTK-Luc plasmid and either 0.3 μg of human E47, E47MER or pMSCVhph vector in 50 μl of serum-free Dulbecco's modification of Eagle medium per well. Transfections included Renilla luciferase (pRL-TK) plasmid as a control for transfection efficacy. Transfection conditions were as described in the PPRE-Luc reporter assay of Kiselyuk, et al. ((2010) J. Biomol. Screen 15(6):663-70). Sixteen hours after transfection, culture media were changed and maintained for 48 hours with tamoxifen and/or compound or vehicle (DMSO). Cells were then lysed and assayed for luciferase activity using the Promega DUAL-LUCIFERASE® reporter assay kit (Promega Corp., Madison, WI), and luminescence was measured using the Veritas™ Microplate Luminometer (Turner Biosystems, Sunnyvale, CA). Data were normalized to Renilla luciferase (pRL-TK) and expressed as fold-change over vehicle alone.

[3] = Hepatic microsome stability assay, mouse; format: in vitro ADME; settings: for % Remaining: mouse microsomes
Method: Hepatic Microsome Assay. Hepatic microsomes stability assays were performed in accordance with known methods (Peddibhotla, et al. (2013) ACS Med. Chem. Lett. 4:846-851). Briefly, 3 μL of 25 μM compound solution in acetonitrile were incubated with 123 μL of mouse, human or rat liver microsomes (Xenotech, Kansas City, KS). After preincubation at 37° C. for 10 minutes, enzyme reactions were initiated by adding 120 !at of NADPH-generating system (2 mM NADP+, 10 mM glucose-6-phosphate, 0.4 U/ml glucose-6-phosphate dehydrogenase, and 5 mM MgCl2) in the presence of 100 mM potassium phosphate buffer (pH 7.4). […] The microsomal concentrations used were 1.0 mg/mL. Compounds were incubated in microsomes for 0, 5, 15, 30 and 60 minutes. The reactions were stopped by the addition of ice cold ACN and the reaction mixtures were centrifuged at 10,000 g for 10 minutes before the supernatant was removed for analysis. A 10 μL portion of the resulting extract was injected on a Thermo HPLC system equipped with PAL CTC plate sampler (96-well plate), Dionex Ultimate 3000 binary pump (flow rate at 0. 600 mL/min), Dionex Ultimate 3000 thermostatted column compartment (temperature at 40° C.), Thermo Endura Mass Spectrometer (ESI source), using a Thermo Scientific Accucore C18 (2.6 μM, 2.1×50 mm) column. A gradient was run starting at 95% H2O (0.1% formic acid) and 5% ACN (0. 1% formic acid) during the first 0. 5 min, then under gradient condition of 5-100% ACN (0.1% formic acid) from minute 0. 5 to 3.5, finishing at 95% H2O (0.1% formic acid) and 5% ACN (0.1% formic acid) over 0.5 min, with another 1 min at 95:5 to re-equilibrate.

Which “lipid accumulation when palmitate was added prior to compound” value ([1]; T6PNE cells pretreated 1 day with 0.06-0.25 mM palmitate, 15 μM compound, Nile Red, FIG. 6) does the source give for O=C(/C=C/c1ccc(O)c(O)c1)NCCc1ccc(O)cc1 [N-trans-caffeoyltyramine] here?
The value was “reduced lipid accumulation; also recorded: can reverse fat accumulation”.

What about the fat accumulation ([1]; T6PNE cells, 0.25 mM palmitate, 10 μM compound) of the same molecule?
Its fat accumulation is “inhibition of fat accumulation”.

And the estrogenic activity [2]?
The estrogenic activity was “did not exhibit estrogenic activity”.

What about the half-life at 1 μM ([3]; liver microsomes, pH 7.4, 1 μM) of the same molecule?
Its half-life at 1 μM is 0.8 min.

And the microsomal CLint at 1 μM ([3]; liver microsomes, pH 7.4, 1 μM, read-out: Clearance Rate)?
Its microsomal CLint at 1 μM is 1760 µL/min/mg.

What about the half-life at 10 μM ([3]; liver microsomes, pH 7.4, 10 μM) of the same molecule?
The half-life at 10 μM was 6.9 min.

What about the microsomal CLint at 10 μM ([3]; liver microsomes, pH 7.4, 10 μM, read-out: Clearance Rate) of the same molecule?
Its microsomal CLint at 10 μM is 200 µL/min/mg.

And the “% Remaining” value ([3]; 1 μM)?
Its value is 0.4%.

And the “% Remaining” value ([3]; 10 μM)?
The value was 0.3%.
